This is an account of results in patent US20170252469A9, “Method for predicting autism spectrum disorders by cannabinoid and cannabinoid receptor expression” (The United of America as represented by the Secretary of …, priority 2011, published 2017).

SMILES strings stand for the structures. Entries after “also recorded” stand apart in the source; their conditions may differ.

The test system of assay [1] is BTBR mice. Description: three-chamber social approach test in BTBR mice. Type of assay: in vivo, mouse. An excerpt:
(§1) BTBR T+tf/J, 129S1/SvImJ and C57BL/6 mouse colony founders were originally obtained from the Jackson Laboratory (Bar Harbor, Me., USA). These strains were bred in the animal facilities of the University of Texas Health Science Center at San Antonio through 2 generations. After weaning at 23-25 days of age, male littermates were housed in groups of 4-5 per cage until behavioral testing at 3-4 months of age. Mice had ad libitum access to food (Teklad™ rodent diet, Harlan, Indianapolis, Ind., USA) and water in ventilated clear plastic cages lined with chipped wood bedding.
(§2) The cannabinoid agonist WIN55,212-2 (Ascent Scientific, Princeton, N.J., USA) was dissolved initially in dimethyl-sulfoxide (DMSO Sigma) and was diluted with saline (1:10) to administer 0.1 mg/kg i.p. in 10% DMSO to mice. […] Injections were given 30 minutes prior to introduction to the testing arena for conditioning, and 50 min prior to behavior testing.
The three-chamber sociability testing procedure for mice is described in detail in Yang et al. Curr. Protoc. Neurosci., Chapter 8: Unit 8. 26 (2011), our study was conducted in a manner consistent with that protocol. Mice were introduced into the center chamber of an acrylic three-chamber sociability arena, measuring 30×22×61 cm with a light tan bottom, black side walls and two transparent interior walls with slat door openings of 10 cm^2 […] dividing the arena into 3 chambers, for 20 min prior to behavioral testing. As described in Gould et al. J. Neurochem., 116: 291-303 (2011), pre-conditioning was performed under low red light (16 lux) at first for 10 min with the mouse confined in the center chamber, then with the doors opened so the subject could explore the entire arena for 10 min longer. Just prior to testing, subjects were briefly confined in the center chamber while an empty wire cup cage was placed at one end of the arena, and a stranger mouse of the same strain was placed under an identical cup cage at the opposite end. Stranger mice were neither litter- nor cage-mates of the subjects and were housed in a separate ventilated cage rack. Stranger mice were pre-conditioned under cup cages in 3 sessions of 30 min each in the day(s) prior to testing, separated by 1 hour reprises in their home cages. Cup cages were topped with weighted jars (9 cm high×7 cm diameter) to prevent mice from climbing on top of them. Digital video cameras (Hewlett-Packard Photosmart™ R742, Palo Alto, Calif., USA) positioned on top of tripods overseeing the arenas were turned on, the doors were removed and social approach behavior was recorded for 10 min under low red light.

In assay [2] the test system is BTBR mice. Description: three-chamber social novelty test in BTBR mice. Type of assay: in vivo, mouse. Particulars: WIN 55,212-2 0.1 mg/kg i.p.; for time in the chamber with the novel stranger / chamber entries: acetaminophen 100 mg/kg; for time in the chamber with the novel stranger: vs controls; for chamber entries: social novelty test, BTBR. The method, then: as §2
(§3) The social approach test ended with confinement of the subject into the center chamber and closing of the slat doors. A new stranger mouse was then placed under the empty cup cage, the doors were opened, and behavior was recorded for another 10 min under low red light to assess preference for social novelty. At the end of the test, stranger mice were returned to their home cages for use in subsequent tests, and subject mice were removed from the arena and placed in a marble burying test. The number of boli in the center of the arena was counted prior to cleaning the arena with a solution of 70% EtOH and paper towels prior to conditioning and testing the next animal. Digital videos were analyzed for box entries, time in box and social sniffing time by observers blind to mouse strain or drug treatments.

Assay [3] relates to BTBR mice. Put plainly: marble burying test in BTBR mice, acute treatment. Type of assay: in vivo, mouse. Conditions: 30 min, FIG. 2d. The method, then: as §2
For assay [4], the system named is 129S1/SvImJ mice. Put plainly: three-chamber social approach test in 129S1/SvImJ mice. Type of assay: in vivo, mouse. Particulars: 129S.
Description: as §1, §2
The three-chamber sociability testing procedure for mice is described in detail in Yang et al. Curr. Protoc. Neurosci., Chapter 8: Unit 8. 26 (2011), our study was conducted in a manner consistent with that protocol. Mice were introduced into the center chamber of an acrylic three-chamber sociability arena, measuring 30×22×61 cm with a light tan bottom, black side walls and two transparent interior walls with slat door openings of 10 cm^2 […] dividing the arena into 3 chambers, for 20 min prior to behavioral testing. As described in Gould et al. J. Neurochem., 116: 291-303 (2011), pre-conditioning was performed under low red light (16 lux) at first for 10 min with the mouse confined in the center chamber, then with the doors opened so the subject could explore the entire arena for 10 min longer. […] Digital video cameras (Hewlett-Packard Photosmart™ R742, Palo Alto, Calif., USA) positioned on top of tripods overseeing the arenas were turned on, the doors were removed and social approach behavior was recorded for 10 min under low red light.

The test system of assay [5] is 129S1/SvImJ mice. Put plainly: three-chamber social novelty test in 129S1/SvImJ mice. Type of assay: in vivo, mouse. Conditions: 129S, FIG. 3c; for time in the arena chamber with a new stranger mouse: acetaminophen 100 mg/kg i.p. The method, then:
as §2, §3

The next assay relates to 5-HT neurons. Particulars: literature; cited from earlier work.
Assay [6] deals with 129S1/SvImJ mice. Description: marble burying test in 129S1/SvImJ mice, acute treatment. Type of assay: in vivo, mouse. Particulars: 129S, acetaminophen 100 mg/kg i.p., FIG. 3d. The method, then:
as §2

For the next assay, the system named is BTBR and C57BL/6 mice. Put plainly: marble burying after injections in early postnatal development. Type of assay: in vivo, mouse. Particulars: 100 mg/kg i.p. injections from 18-21 days postnatal, 59 days, FIG. 5. The protocol:
(§4) The mice were then tested for marble burying and evaluated for neurochemical measures.

Assay [7] relates to BTBR mice. Put plainly: 2-AG levels after injections in early postnatal development. Type of assay: in vivo, mouse. Particulars: 100 mg/kg i.p. injections from 18-21 days postnatal, 59 days, FIG. 6. The protocol: as §4
The subject of another assay is mice. Conditions: administration of anandamide or high doses of acetaminophen; Umathe et al. 2009; cited from earlier work.
The next assay has as its system 5-HT receptors. Particulars: literature; cited from earlier work.

On to `Cc1c(C(=O)c2cccc3ccccc23)c2cccc3c2n1[C@H](CN1CCOCC1)CO3` [WIN 55,212-2], for which the “time in the arena center” value was “increased lingering in the arena center” with BTBR mice [1] (WIN 55,212-2 0.1 mg/kg i.p., social approach, FIG. 2a) and “reduced dwelling in the arena center; also recorded: spent less time than the other groups in the arena center” in the assay on BTBR mice [2] (social novelty, FIG. 2c). For the same compound, in the assay with BTBR mice [2] (FIG. 2c), the “time in the chamber with the novel stranger” value is on record as “reduced time spent in the chamber of the arena with a novel stranger; also recorded: spent less time in the box with the novel stranger than controls”. Besides, the chamber entries in the assay on BTBR mice [2] is recorded as 19±3. In addition, the marbles buried entry with BTBR mice [3] is “trend toward WIN 55212 treated mice burying fewer than controls”. The “time in the center chamber” value in the assay with 129S1/SvImJ mice [4] (WIN 55,212-2 0.1 mg/kg i.p.) was “increased time spent by 129S mice in the arena center; also recorded: spent more time than acetaminophen (100 mg/kg) or vehicle (saline±10% DMSO) treated mice in the center chamber”. In addition, the “dwelling in the center chamber” value with 129S1/SvImJ mice [5] (WIN 55,212-2 0.1 mg/kg i.p.) is listed as “increased dwelling in the center chamber of the arena”. Moreover, the “presynaptic 5-HT release in brain” value in the assay with 5-HT neurons is given as “inhibit presynaptic 5-HT release in brain”.

Turning to `CC(=O)Nc1ccc(O)cc1` [acetaminophen], the “dwelling near confined stranger mice” value in the assay on BTBR mice [1] (100 mg/kg i.p. 50 min prior to testing, adult male BTBR, FIG. 1) is given as “increased dwelling near confined stranger mice”; in the assay with BTBR mice [1] (400 mg/kg i.p. 50 min prior to testing, adult male BTBR, FIG. 1), “increased dwelling near confined stranger mice”. The “time in the chamber with the empty cage” value in the assay with BTBR mice [1] (acetaminophen 100 mg/kg i.p., vs vehicle controls or WIN 55,212-2 0.1 mg/kg) is reported as “less time in the chamber with the empty cage”. Further, the “time in the chamber with the stranger mouse” value in the assay with BTBR mice [1] (acetaminophen 100 mg/kg i.p., vs vehicle controls or WIN 55,212-2 0.1 mg/kg, FIG. 2a) is “increased dwelling near stranger mice; also recorded: spent more time in the chamber with the stranger mouse”. In addition, the “lowest dose to significantly increase time spent in the chamber with a stranger mouse above saline-injected controls” value with BTBR mice [1] (adult male BTBR, dose-response 1-400 mg/kg i.p., FIG. 1) worked out at 100 mg/kg. In the assay on BTBR mice [2] (FIG. 2c), the “time in the chamber with the novel stranger” value is recorded as “reduced time spent in the chamber of the arena with a novel stranger; also recorded: spent less time in the box with the novel stranger than controls”. Also, the chamber entries with BTBR mice [2] was 50±7; with 129S1/SvImJ mice [4] (acetaminophen 100 mg/kg, WIN 55,212-2 0.1 mg/kg i.p.) it was 21±5. Further, the “time spent sniffing the stranger mouse or investigating the empty cage” value in the assay on 129S1/SvImJ mice [4] (FIG. 3b) is given as “trend toward acetaminophen-treated 129S mice spending more time investigating strangers that did not reach significance”. The “time in the arena chamber with a new stranger mouse” value is “spent significantly more time than controls in the arena chamber with a new stranger mouse” in the assay on 129S1/SvImJ mice [5] and “increased dwelling near new strangers relative to controls” in the assay on 129S1/SvImJ mice [5] (listed as Acetaminophen). For the same compound, the marble burying result is reported as “greater than in vehicle-control or WIN 55,212-2 treated 129S mice” in the assay with 129S1/SvImJ mice [6] and “increased marble burying behavior relative to control or WIN 55,212 treatments” with 129S1/SvImJ mice [6] (listed as Acetaminophen). For the same compound, the marble burying behavior entry in the assay on BTBR and C57BL/6 mice is “induced significant marble burying behavior”. Moreover, the 2-AG levels result with BTBR mice [7] was “significant affect on 2-AG levels; also recorded: diminution of 2-AG levels”. For the same compound, in the assay on mice, the social interactions entry is recorded as “promote social interactions in mice”. Further, in the assay with 5-HT receptors, the “affinity for 5-HT receptors” value is reported as “little to no affinity for 5-HT receptors”.

`CCCCC/C=C\C/C=C\C/C=C\C/C=C\CCCC(=O)NCCO` [anandamide, N-arachidonoylethanolamine]: the social interactions result in the assay on mice is on record as “promote social interactions in mice”.
